{"source": "patent US20230348418A1", "about": "“ISOINDOLINONE COMPOUNDS” (Monte Rosa Therapeutics, Inc., priority 2021, published 2023)", "key": {"[1]": {"molecular_target": "T1, GSPT1 (Homo sapiens, UniProt P15170)", "T1 construct": "GSPT1 levels in tumors were determined by western blotting 6 hours after the third dose; from tissue; host or cells: NCI-H1155 (ATCC CRL-5818) xenograft tumours in female BALB/c nude mice", "T1 sequence (P15170 whole entry)": "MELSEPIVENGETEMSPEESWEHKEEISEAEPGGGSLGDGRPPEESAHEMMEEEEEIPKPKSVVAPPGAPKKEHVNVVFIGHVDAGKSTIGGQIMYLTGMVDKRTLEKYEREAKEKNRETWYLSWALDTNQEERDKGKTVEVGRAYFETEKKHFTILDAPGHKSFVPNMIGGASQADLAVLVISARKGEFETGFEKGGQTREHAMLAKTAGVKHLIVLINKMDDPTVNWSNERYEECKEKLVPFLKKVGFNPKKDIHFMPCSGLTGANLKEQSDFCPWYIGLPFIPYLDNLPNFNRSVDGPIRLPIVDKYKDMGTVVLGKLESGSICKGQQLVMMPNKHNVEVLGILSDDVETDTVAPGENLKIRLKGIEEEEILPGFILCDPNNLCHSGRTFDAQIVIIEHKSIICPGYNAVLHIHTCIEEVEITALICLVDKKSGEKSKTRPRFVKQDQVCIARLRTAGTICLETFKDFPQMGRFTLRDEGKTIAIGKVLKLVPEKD", "T1 sequence (Q96SW2 whole entry, further chain)": "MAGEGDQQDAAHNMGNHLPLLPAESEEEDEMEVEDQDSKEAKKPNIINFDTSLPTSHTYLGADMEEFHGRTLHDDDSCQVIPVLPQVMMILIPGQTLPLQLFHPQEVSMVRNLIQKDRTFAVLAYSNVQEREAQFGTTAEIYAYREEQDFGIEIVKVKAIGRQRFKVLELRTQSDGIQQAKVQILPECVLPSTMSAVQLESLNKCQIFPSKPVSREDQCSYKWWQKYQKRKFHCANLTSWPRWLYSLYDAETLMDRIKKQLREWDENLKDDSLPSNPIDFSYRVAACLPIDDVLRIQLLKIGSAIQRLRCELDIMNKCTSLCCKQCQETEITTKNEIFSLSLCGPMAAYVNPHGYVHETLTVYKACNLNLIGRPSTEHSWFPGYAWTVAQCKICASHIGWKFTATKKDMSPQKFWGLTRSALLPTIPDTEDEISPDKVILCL", "T1 sequence (Q16531 2-1140 partner limits assumed)": "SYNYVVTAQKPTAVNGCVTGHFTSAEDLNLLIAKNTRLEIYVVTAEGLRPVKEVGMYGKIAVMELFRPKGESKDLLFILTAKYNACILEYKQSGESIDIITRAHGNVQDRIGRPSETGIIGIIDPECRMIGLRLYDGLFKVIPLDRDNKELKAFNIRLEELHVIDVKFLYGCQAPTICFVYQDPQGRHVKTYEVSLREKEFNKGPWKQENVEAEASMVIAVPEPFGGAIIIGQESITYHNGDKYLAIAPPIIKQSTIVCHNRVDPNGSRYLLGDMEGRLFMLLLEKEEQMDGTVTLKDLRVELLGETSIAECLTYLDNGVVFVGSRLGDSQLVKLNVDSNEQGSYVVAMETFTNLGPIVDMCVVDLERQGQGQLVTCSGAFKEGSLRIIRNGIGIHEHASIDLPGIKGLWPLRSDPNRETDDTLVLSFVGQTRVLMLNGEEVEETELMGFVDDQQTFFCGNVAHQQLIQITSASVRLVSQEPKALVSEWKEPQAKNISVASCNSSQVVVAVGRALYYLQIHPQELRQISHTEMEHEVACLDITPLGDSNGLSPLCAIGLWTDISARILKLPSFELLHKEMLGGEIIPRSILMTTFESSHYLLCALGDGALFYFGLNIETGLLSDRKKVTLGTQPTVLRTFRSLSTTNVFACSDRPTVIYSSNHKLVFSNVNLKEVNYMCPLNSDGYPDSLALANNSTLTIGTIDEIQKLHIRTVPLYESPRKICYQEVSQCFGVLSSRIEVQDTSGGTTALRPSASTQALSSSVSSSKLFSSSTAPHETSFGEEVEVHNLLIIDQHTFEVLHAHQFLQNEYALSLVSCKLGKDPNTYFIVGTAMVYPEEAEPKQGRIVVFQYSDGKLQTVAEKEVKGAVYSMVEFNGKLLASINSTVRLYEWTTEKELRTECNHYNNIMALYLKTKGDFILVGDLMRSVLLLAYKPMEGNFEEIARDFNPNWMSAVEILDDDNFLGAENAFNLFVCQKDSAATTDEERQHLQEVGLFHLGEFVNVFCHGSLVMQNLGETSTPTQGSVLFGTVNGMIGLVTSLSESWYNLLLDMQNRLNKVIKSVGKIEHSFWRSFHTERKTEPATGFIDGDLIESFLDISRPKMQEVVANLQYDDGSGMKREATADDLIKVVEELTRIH", "experiment": "GSPT1 degradation in tumors of treated mice (FIG. 3B)", "assay_type": "in vivo, mouse", "conditions": "all three dose levels (1 mg/kg, 3 mg/kg, 6 mg/kg), compared to vehicle control"}, "[2]": {"system": "NCI-H1770", "experiment": "N-Myc-driven mouse xenograft model, human cell line NCI-H1770 (FIG. 3C)", "assay_type": "in vivo"}, "[3]": {"molecular_target": "T2, Full length wild-type cereblon CRBN (Homo sapiens, UniProt Q96SW2)", "T2 construct": "Full length wild-type cereblon CRBN (80.0 nM, 10 μL) was incubated in assay buffer", "T2 sequence (Q96SW2 whole entry)": "as the sequence (Q96SW2 whole entry, further chain) above", "experiment": "Fluorescence polarization (FP) assay, cereblon binding", "procedure,_shortened": "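Full-length wild-type human CRBN (80.0 nM) was preincubated with compound for 30 min at room temperature in 20 mM HEPES pH 8.0, 150 NaCl, 0.5 mM TCEP and 0.05% Tween 20. A Cy5-type thalidomide-linked fluorescent probe was then added. The FP signal was normalized to the DMSO control to derive IC50.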"}, "[4]": {"molecular_target": "T3, SALL4 (Homo sapiens, UniProt Q9UJQ4)", "T3 construct": "endogenous in cells", "T3 sequence (Q96SW2 whole entry partner)": "as the sequence (Q96SW2 whole entry, further chain) above", "T3 sequence (Q16531 2-1140 partner limits assumed)": "as the sequence (Q16531 2-1140 partner limits assumed) above", "T3 sequence (Q9UJQ4 whole entry)": "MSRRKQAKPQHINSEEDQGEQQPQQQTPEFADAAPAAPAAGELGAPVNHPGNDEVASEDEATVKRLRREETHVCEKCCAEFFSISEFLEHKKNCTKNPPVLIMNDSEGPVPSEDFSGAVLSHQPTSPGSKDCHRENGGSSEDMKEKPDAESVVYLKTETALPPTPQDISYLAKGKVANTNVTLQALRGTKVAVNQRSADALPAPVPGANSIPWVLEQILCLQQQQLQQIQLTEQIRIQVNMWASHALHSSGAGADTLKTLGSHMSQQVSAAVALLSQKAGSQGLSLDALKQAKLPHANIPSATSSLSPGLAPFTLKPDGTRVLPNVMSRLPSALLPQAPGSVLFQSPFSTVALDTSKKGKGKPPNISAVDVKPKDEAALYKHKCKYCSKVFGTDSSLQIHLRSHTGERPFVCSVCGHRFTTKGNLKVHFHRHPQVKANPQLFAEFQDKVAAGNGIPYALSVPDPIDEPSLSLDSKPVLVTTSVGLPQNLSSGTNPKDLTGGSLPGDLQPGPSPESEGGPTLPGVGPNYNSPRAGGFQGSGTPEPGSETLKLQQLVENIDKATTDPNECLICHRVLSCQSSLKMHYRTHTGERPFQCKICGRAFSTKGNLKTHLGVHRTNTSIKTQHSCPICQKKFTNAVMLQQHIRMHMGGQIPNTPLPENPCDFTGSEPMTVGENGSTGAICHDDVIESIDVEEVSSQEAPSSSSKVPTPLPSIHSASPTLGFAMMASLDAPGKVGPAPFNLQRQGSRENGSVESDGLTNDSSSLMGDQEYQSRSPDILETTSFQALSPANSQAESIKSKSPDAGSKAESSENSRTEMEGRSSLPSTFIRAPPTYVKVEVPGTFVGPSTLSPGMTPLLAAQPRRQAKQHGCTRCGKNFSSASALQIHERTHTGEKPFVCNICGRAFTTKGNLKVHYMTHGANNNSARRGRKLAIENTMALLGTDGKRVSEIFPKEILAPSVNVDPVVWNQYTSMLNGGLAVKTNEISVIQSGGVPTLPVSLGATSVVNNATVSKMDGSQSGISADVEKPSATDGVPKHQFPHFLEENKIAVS", "experiment": "SALL4 degradation in treated cells (FIG. 1A)", "assay_type": "cell-based", "conditions": "concentrations up to 30 µM"}, "[5]": {"system": "NCI-H1155", "experiment": "viability of NSCLC cell line, high N-Myc (FIG. 2A)", "assay_type": "cell-based, human", "conditions": "compared to low N-Myc EBC-1 and NCI-H2023", "method": "(§1) GSPT1 was degraded by compound 10 after six hours of treatment in high N-Myc NCI-H1155 and ABC-1 cells with a DC50 of 3 nM and 22 nM, respectively (x-axys represents […]M concentration of compound 10; y-axis represents the viability in %)."}, "[6]": {"system": "NCI-H1155 cells (human non small cell lung cancer)", "experiment": "NCI-H1155 xenograft study", "assay_type": "in vivo, BALB/c nude mice", "method": "For the NCI-H1155 xenograft study, cells (human non small cell lung cancer, ATCC CRL-5818) were maintained in vitro as suspension culture in ATCC-formulated DMEM:F12 Medium supplemented as recommended by the provider and kept at 37° C. in an atmosphere of 5% CO2 in air. Cells (0.5 millions) were resuspended in 0.2 mL of PBS with Matrigel (50:50) and inoculated into female BALB/c nude mice, 6-8 weeks old, and allowed to grow to 150 mm^3 in size. Mice were dosed orally with either vehicle or compound 10 at 1 or 3 mg per kilogram daily (filled squares and filled triangles, respectively) or 6 mg per kilogram for 5 continuous days followed by 9 days treatment holidays (5 On-9 off) (filled inverted triangles). Compound formulations were prepared fresh daily in 5% vDMSO/95%(30% w/v HP-β-CD in water). Gemcitabine dosed at 40 mg per kilogram, IP, Q4Dx5 was used as a positive control (filled rhombi). For this study, mice were dosed for 21 days with tumor volumes measured every 3 days."}, "[7]": {"system": "NCI-H526", "experiment": "N-Myc-driven mouse xenograft model, human cell line NCI-H526 (FIG. 3D)", "assay_type": "in vivo"}, "[8]": {"system": "NCI-H1155", "experiment": "N-Myc-driven mouse xenograft model, human cell line NCI-H1155 (FIG. 3A)", "assay_type": "in vivo"}, "[9]": {"system": "ABC-1", "experiment": "viability of NSCLC cell line, high N-Myc (FIG. 2A)", "assay_type": "cell-based", "conditions": "ABC-1, high N-Myc; compared to low N-Myc EBC-1 and NCI-H2023", "method": "as §1"}, "[10]": {"molecular_target": "GSPT1 (Homo sapiens, UniProt P15170+Q96SW2)", "sequence (P15170 whole entry)": "as the sequence (P15170 whole entry) above", "sequence (Q96SW2 whole entry)": "as the sequence (Q96SW2 whole entry, further chain) above", "sequence (Q16531 2-1140 partner limits assumed)": "as the sequence (Q16531 2-1140 partner limits assumed) above", "experiment": "relative levels of GSPT1 versus concentration (FIG. 2B)", "assay_type": "cell-based", "parameters": "endogenous in cells; host or cells: MM1S (ATCC CRL-2974)", "conditions": "cell line not named", "method": "as §1"}, "[11]": {"conditions": "6 mg/kg PO, five days on and nine days off"}}, "note": "Where two headings read alike, the source gives them in different places."}
{"compound": "Cc1ccc(NC(=O)OCc2ccc3c(c2)C(=O)N(C2CCC(=O)NC2=O)C3)cc1Cl", "note": "(stereo not shown) [Compound 10]", "values": [{"measurement": "degradation of GSPT1 in tumors", "setting": "[1]", "result": "complete degradation"}, {"measurement": "tumor size (tumor volume)", "setting": "[2]; 3 mg/kg once daily, PO", "result": "tumor size decreased and remained so until the end of the study"}, {"measurement": "tumor size (tumor volume)", "setting": "[2]; [11]", "result": "tumor size decreased and remained so until the end of the study"}, {"measurement": "body weight", "setting": "[2]; oral administration, NCI-H1770 xenograft", "result": "no body weight loss observed"}, {"measurement": "tumor growth (tumor volume)", "setting": "[2]; oral administration, NCI-H1770 xenograft, overall", "result": "tumor growth inhibition"}, {"measurement": "IC50", "setting": "[3]; bounds stated in the text lists b2059-b2061, read-out: IC50 value", "result": "< 1.7", "unit": "µM"}, {"measurement": "IC50", "setting": "[3]; cereblon binding, class code, read-out: rFP IC50", "result": "1.1 to 1.7", "unit": "µM"}, {"measurement": "degradation of SALL4", "setting": "[4]", "result": "no induction of degradation"}, {"measurement": "sensitivity to treatment (viability in %)", "setting": "[5]", "result": "highly sensitive"}, {"measurement": "Tumor growth (FIG. 3A)", "setting": "[6]; 1 mg/kg once daily, oral", "result": "tumor growth was suppressed for two weeks"}, {"measurement": "Tumor size (FIG. 3A)", "setting": "[6]; 3 mg/kg once daily, oral", "result": "tumor size decreased, became undetectable by day eight and remained so until the end of the study at day 21"}, {"measurement": "Tumor size (FIG. 3A)", "setting": "[6]; 6 mg/kg dosed for five days on and nine days off, oral", "result": "tumor size decreased, became undetectable by day eight and remained so until the end of the study at day 21"}, {"measurement": "body weight", "setting": "[6]; oral administration, NCI-H1155 xenograft mice", "result": "no body weight loss observed"}, {"measurement": "Tumor growth (FIG. 3A)", "setting": "[6]; oral administration, all dose groups", "result": "tumor growth inhibition"}, {"measurement": "tumor size (tumor volume)", "setting": "[7]; 3 mg/kg once daily, PO", "result": "tumor size decreased and remained so until the end of the study"}, {"measurement": "tumor size (tumor volume)", "setting": "[7]; [11]", "result": "tumor size decreased and remained so until the end of the study"}, {"measurement": "body weight", "setting": "[7]; oral administration, NCI-H526 xenograft", "result": "no body weight loss observed"}, {"measurement": "tumor growth (tumor volume)", "setting": "[7]; oral administration, NCI-H526 xenograft, overall", "result": "tumor growth inhibition"}, {"measurement": "tumor growth (tumor volume)", "setting": "[8]; 1 mg/kg once daily, PO", "result": "tumor growth was suppressed for two weeks"}, {"measurement": "tumor size (tumor volume)", "setting": "[8]; 3 mg/kg once daily, PO", "result": "tumor size decreased, became undetectable by day eight and remained so until the end of the study at day 21"}, {"measurement": "tumor size (tumor volume)", "setting": "[8]; [11]", "result": "tumor size decreased, became undetectable by day eight and remained so until the end of the study at day 21"}, {"measurement": "body weight", "setting": "[8]; oral administration, NCI-H1155 xenograft", "result": "no body weight loss observed"}, {"measurement": "tumor growth (tumor volume)", "setting": "[8]; oral administration, NCI-H1155 xenograft, overall", "result": "tumor growth inhibition"}, {"measurement": "sensitivity to treatment (viability in %)", "setting": "[9]", "result": "highly sensitive"}, {"measurement": "GSPT1 degradation versus concentration", "setting": "[10]", "result": "concentration dependent manner"}]}
